In ChEMBL document CHEMBL5033997, “Macrolide Inspired Macrocycles as Modulators of the IL-17A/IL-17RA Interaction” (J Med Chem, 2021) one finds IC50 data, which are given here for 27 molecules.

One may read the IC50 as the concentration that gives 50% inhibition.

This assay can be described thus: Inhibition of recombinant human IL-17A/IL-17AR protein-protein interaction using TMB substrate compound added on IL17A precoated plate and followed by IL-17AR addition by ELISA. (An ELISA detects its analyte on a solid surface through an enzyme-linked reagent.)
For `CO[C@]1(C)C[C@H](O[C@H]2[C@H](C)[C@@H](O[C@@H]3O[C@H](C)C[C@H](N(C)C)[C@H]3O)[C@](C)(O)C[C@@H](C)CN(C)C(=O)C[C@@H](Cc3ccc(NC(=O)[C@H](Cc4ccccc4Cl)NC(=O)Cc4ccc(C)cc4)cc3)NC(=O)[C@H](C(C)C)NC(=O)[C@@H]2C)O[C@@H](C)[C@@H]1O`, the IC50 came to 243 nM.

As to `CO[C@]1(C)C[C@H](O[C@H]2[C@H](C)[C@@H](O[C@@H]3O[C@H](C)C[C@H](N(C)C)[C@H]3O)[C@](C)(O)C[C@@H](C)CN(C)C(=O)[C@H](C(C)C)NC(=O)C[C@@H](Cc3ccc(NC(=O)[C@H](Cc4ccccc4Cl)NC(=O)Cc4ccccc4)cc3)NC(=O)[C@@H]2C)O[C@@H](C)[C@@H]1O`, the IC50 was > 30000 nM.

`CO[C@]1(C)C[C@H](O[C@H]2[C@H](C)[C@@H](O[C@@H]3O[C@H](C)C[C@H](N(C)C)[C@H]3O)[C@](C)(O)C[C@@H](C)CN(C)C(=O)C[C@@H](Cc3ccc(NC(=O)[C@H](Cc4ccccc4)NC(=O)Cc4ccccc4)cc3)NC(=O)[C@H](C(C)C)NC(=O)[C@@H]2C)O[C@@H](C)[C@@H]1O`: the 50% inhibitory concentration (IC50) is 2560 nM.

For `CO[C@]1(C)C[C@H](O[C@H]2[C@H](C)[C@@H](O[C@@H]3O[C@H](C)C[C@H](N(C)C)[C@H]3O)[C@](C)(O)C[C@@H](C)CN(C)C(=O)C[C@@H](Cc3ccc(NC(=O)[C@H](Cc4ccccc4Cl)NC(=O)Cc4ccccc4)cc3)NC(=O)[C@H](C(C)C)CNC(=O)[C@@H]2C)O[C@@H](C)[C@@H]1O`, the half-inhibitory concentration (IC50) was 2900 nM.

For the molecule `CO[C@]1(C)C[C@H](O[C@H]2[C@H](C)[C@@H](O[C@@H]3O[C@H](C)C[C@H](N(C)C)[C@H]3O)[C@](C)(O)C[C@@H](C)CN(C)C(=O)C[C@@H](Cc3ccc(NC(=O)[C@H](Cc4ccccc4Cl)NC(=O)Cc4ccccc4)cc3)NC(=O)[C@@H](C(C)C)CNC(=O)[C@@H]2C)O[C@@H](C)[C@@H]1O`, the IC50 stood at 24800 nM.

Consider `CO[C@]1(C)C[C@H](O[C@H]2[C@H](C)[C@@H](O[C@@H]3O[C@H](C)C[C@H](N(C)C)[C@H]3O)[C@](C)(O)C[C@@H](C)CN(C)C(=O)[C@H](Cc3ccc(NC(=O)[C@H](Cc4ccccc4Cl)NC(=O)Cc4ccccc4)cc3)NC(=O)[C@H](C(C)C)NC(=O)[C@@H]2C)O[C@@H](C)[C@@H]1O`, for which the half-maximal inhibitory concentration (IC50) is 15900 nM.

For the molecule `CO[C@]1(C)C[C@H](O[C@H]2[C@H](C)[C@@H](O[C@@H]3O[C@H](C)C[C@H](N(C)C)[C@H]3O)[C@](C)(O)C[C@@H](C)CN(C)C(=O)C[C@@H](Cc3ccc(NC(=O)[C@H](Cc4ccccc4Cl)NC(=O)Nc4ccccc4F)cc3)NC(=O)[C@H](C(C)C)NC(=O)[C@@H]2C)O[C@@H](C)[C@@H]1O`, the IC50 came to 30 nM.

On to `CO[C@]1(C)C[C@H](O[C@H]2[C@H](C)[C@@H](O[C@@H]3O[C@H](C)C[C@H](N(C)C)[C@H]3O)[C@](C)(O)C[C@@H](C)CN(C)C(=O)C[C@@H](Cc3ccc(NC(=O)[C@H](Cc4ccccc4C)NC(=O)Cc4ccccc4)cc3)NC(=O)[C@H](C(C)C)NC(=O)[C@@H]2C)O[C@@H](C)[C@@H]1O`, for which the IC50 was 488 nM.

For `CO[C@]1(C)C[C@H](O[C@H]2[C@H](C)[C@@H](O[C@@H]3O[C@H](C)C[C@H](N(C)C)[C@H]3O)[C@](C)(O)C[C@@H](C)CN(C)C(=O)C[C@@H](Cc3ccc(NC(=O)[C@H](Cc4ccccc4Cl)NC(=O)COc4ccccc4)cc3)NC(=O)[C@H](C(C)C)NC(=O)[C@@H]2C)O[C@@H](C)[C@@H]1O`, the IC50 worked out at 1090 nM.

Consider `CC[C@H](C)[C@@H]1NC(=O)[C@H](C)[C@@H](O[C@H]2C[C@@](C)(OC)[C@@H](O)[C@H](C)O2)[C@H](C)[C@@H](O[C@@H]2O[C@H](C)C[C@H](N(C)C)[C@H]2O)[C@](C)(O)C[C@@H](C)CN(C)C(=O)C[C@@H](Cc2ccc(NC(=O)[C@H](Cc3ccccc3Cl)NC(=O)Cc3ccccc3)cc2)NC1=O`, for which the IC50 amounted to 2600 nM.

Take `CO[C@]1(C)C[C@H](O[C@H]2[C@H](C)[C@@H](O[C@@H]3O[C@H](C)C[C@H](N(C)C)[C@H]3O)[C@](C)(O)C[C@@H](C)CN(C)C(=O)C[C@@H](Cc3ccc(NC(=O)[C@H](Cc4ccccc4Cl)NC(=O)Cc4cccc(S(C)(=O)=O)c4)cc3)NC(=O)[C@H](C(C)C)NC(=O)[C@@H]2C)O[C@@H](C)[C@@H]1O`: the half-inhibitory concentration (IC50) is 1600 nM.

Take `CO[C@]1(C)C[C@H](O[C@H]2[C@H](C)[C@@H](O[C@@H]3O[C@H](C)C[C@H](N(C)C)[C@H]3O)[C@](C)(O)C[C@@H](C)CN(C)C(=O)[C@@H](Cc3ccc(NC(=O)[C@H](Cc4ccccc4Cl)NC(=O)Cc4ccccc4)cc3)NC(=O)C[C@H](C(C)C)NC(=O)[C@@H]2C)O[C@@H](C)[C@@H]1O`: the IC50 is > 30000 nM.

Regarding `CO[C@]1(C)C[C@H](O[C@H]2[C@H](C)[C@@H](O[C@@H]3O[C@H](C)C[C@H](N(C)C)[C@H]3O)[C@](C)(O)C[C@@H](C)CN(C)C(=O)C[C@@H](Cc3ccc(NC(=O)[C@H](Cc4ccccc4Cl)NS(=O)(=O)Cc4ccccc4)cc3)NC(=O)[C@H](C(C)C)NC(=O)[C@@H]2C)O[C@@H](C)[C@@H]1O`, the IC50 turned out to be 2560 nM.

As for `CO[C@]1(C)C[C@H](O[C@H]2[C@H](C)[C@@H](O[C@@H]3O[C@H](C)C[C@H](N(C)C)[C@H]3O)[C@](C)(O)C[C@@H](C)CN(C)C(=O)C[C@@H](Cc3ccc(NC(=O)[C@H](Cc4ccccc4Cl)NC(=O)Cc4ccccc4)cc3)NC(=O)[C@H](C(C)(C)C)NC(=O)[C@@H]2C)O[C@@H](C)[C@@H]1O`, the 50% inhibitory concentration (IC50) is 1600 nM.

Consider `CO[C@]1(C)C[C@H](O[C@H]2[C@H](C)[C@@H](O[C@@H]3O[C@H](C)C[C@H](N(C)C)[C@H]3O)[C@](C)(O)C[C@@H](C)CN(C)C(=O)[C@H](Cc3ccc(NC(=O)[C@H](Cc4ccccc4Cl)NC(=O)Cc4ccccc4)cc3)NC(=O)[C@@H](C(C)C)NC(=O)[C@@H]2C)O[C@@H](C)[C@@H]1O`, for which the half-maximal inhibitory concentration (IC50) came to 1400 nM.

Take `COc1ccc(C(=O)N[C@@H](Cc2ccccc2Cl)C(=O)Nc2ccc(C[C@@H]3CC(=O)N(C)C[C@H](C)C[C@@](C)(O)[C@H](O[C@@H]4O[C@H](C)C[C@H](N(C)C)[C@H]4O)[C@@H](C)[C@H](O[C@H]4C[C@@](C)(OC)[C@@H](O)[C@H](C)O4)[C@@H](C)C(=O)N[C@@H](C(C)C)C(=O)N3)cc2)cc1`: the IC50 turned out to be 397 nM.

In the case of `CO[C@]1(C)C[C@H](O[C@H]2[C@H](C)[C@@H](O[C@@H]3O[C@H](C)C[C@H](N(C)C)[C@H]3O)[C@](C)(O)C[C@@H](C)CN(C)C(=O)C[C@@H](Cc3ccc(NC(=O)[C@H](Cc4ccccc4Cl)NC(=O)Cc4ccc(F)cc4)cc3)NC(=O)[C@H](C(C)C)NC(=O)[C@@H]2C)O[C@@H](C)[C@@H]1O`, the half-maximal inhibitory concentration (IC50) came out at 573 nM.

As for `CO[C@]1(C)C[C@H](O[C@H]2[C@H](C)[C@@H](O[C@@H]3O[C@H](C)C[C@H](N(C)C)[C@H]3O)[C@](C)(O)C[C@@H](C)CN(C)C(=O)[C@@H](Cc3ccc(NC(=O)[C@H](Cc4ccccc4Cl)NC(=O)Cc4ccccc4)cc3)NC(=O)C[C@@H](C(C)C)NC(=O)[C@@H]2C)O[C@@H](C)[C@@H]1O`, the IC50 was > 30000 nM.

Consider `CO[C@]1(C)C[C@H](O[C@H]2[C@H](C)[C@@H](O[C@@H]3O[C@H](C)C[C@H](N(C)C)[C@H]3O)[C@](C)(O)C[C@@H](C)CN(C)C(=O)C[C@@H](Cc3ccc(NC(=O)[C@H](Cc4ccccc4Cl)NC(=O)Cc4ccccc4)cc3)NC(=O)[C@H](CC(C)C)NC(=O)[C@@H]2C)O[C@@H](C)[C@@H]1O`, for which the half-maximal inhibitory concentration (IC50) is 12600 nM.

With `CO[C@]1(C)C[C@H](O[C@H]2[C@H](C)[C@@H](O[C@@H]3O[C@H](C)C[C@H](N(C)C)[C@H]3O)[C@](C)(O)C[C@@H](C)CN(C)C(=O)C[C@@H](Cc3ccc(NC(=O)[C@H](Cc4ccccc4Cl)NC(=O)Cc4ccccc4)cc3)NC(=O)CC3(CCCC3)CNC(=O)[C@@H]2C)O[C@@H](C)[C@@H]1O`, the half-inhibitory concentration (IC50) is 6760 nM.

Consider `CO[C@]1(C)C[C@H](O[C@H]2[C@H](C)[C@@H](O[C@@H]3O[C@H](C)C[C@H](N(C)C)[C@H]3O)[C@](C)(O)C[C@@H](C)CN(C)C(=O)C[C@@H](Cc3ccc(NC(=O)[C@H](Cc4ccccc4Cl)NC(=O)Cc4ccccc4)cc3)NC(=O)[C@@H]3CCC[C@H]3NC(=O)[C@@H]2C)O[C@@H](C)[C@@H]1O`, for which the IC50 was 5900 nM.

For `CO[C@]1(C)C[C@H](O[C@H]2[C@H](C)[C@@H](O[C@@H]3O[C@H](C)C[C@H](N(C)C)[C@H]3O)[C@](C)(O)C[C@@H](C)CN(C)C(=O)C[C@@H](Cc3ccc(NC(=O)[C@H](Cc4ccccc4Cl)NC(=O)Cc4ccc(C(=O)O)cc4)cc3)NC(=O)[C@H](C(C)C)NC(=O)[C@@H]2C)O[C@@H](C)[C@@H]1O`, the concentration for half-maximal inhibition (IC50) was > 10000 nM.

Consider `CO[C@]1(C)C[C@H](O[C@H]2[C@H](C)[C@@H](O[C@@H]3O[C@H](C)C[C@H](N(C)C)[C@H]3O)[C@](C)(O)C[C@@H](C)CN(C)C(=O)C[C@@H](Cc3ccc(NC(=O)[C@H](Cc4ccccc4Cl)NC(=O)C(O)c4ccccc4)cc3)NC(=O)[C@H](C(C)C)NC(=O)[C@@H]2C)O[C@@H](C)[C@@H]1O` (some centres not stated), for which the IC50 is 1190 nM.

For `CO[C@]1(C)C[C@H](O[C@H]2[C@H](C)[C@@H](O[C@@H]3O[C@H](C)C[C@H](N(C)C)[C@H]3O)[C@](C)(O)C[C@@H](C)CN(C)C(=O)C[C@@H](Cc3ccc(NC(=O)[C@H](Cc4ccccc4Cl)NC(=O)NCc4ccccc4F)cc3)NC(=O)[C@H](C(C)C)NC(=O)[C@@H]2C)O[C@@H](C)[C@@H]1O`, the IC50 came to 346 nM.

In the case of `CO[C@]1(C)C[C@H](O[C@H]2[C@H](C)[C@@H](O[C@@H]3O[C@H](C)C[C@H](N(C)C)[C@H]3O)[C@](C)(O)C[C@@H](C)CN(C)C(=O)C[C@H](Cc3ccc(NC(=O)[C@H](Cc4ccccc4Cl)NC(=O)Cc4ccccc4)cc3)NC(=O)[C@@H](C(C)C)NC(=O)[C@@H]2C)O[C@@H](C)[C@@H]1O`, the half-inhibitory concentration (IC50) was > 30000 nM.

On to `CO[C@]1(C)C[C@H](O[C@H]2[C@H](C)[C@@H](O[C@@H]3O[C@H](C)C[C@H](N(C)C)[C@H]3O)[C@](C)(O)C[C@@H](C)CN(C)C(=O)C[C@@H](Cc3ccc(NC(=O)[C@H](Cc4ccccc4Cl)NC(=O)c4ccccc4)cc3)NC(=O)[C@H](C(C)C)NC(=O)[C@@H]2C)O[C@@H](C)[C@@H]1O`, for which the concentration for half-maximal inhibition (IC50) is 320 nM.

As to `CO[C@]1(C)C[C@H](O[C@H]2[C@H](C)[C@@H](O[C@@H]3O[C@H](C)C[C@H](N(C)C)[C@H]3O)[C@](C)(O)C[C@@H](C)CN(C)C(=O)C[C@H](Cc3ccc(NC(=O)[C@H](Cc4ccccc4Cl)NC(=O)Cc4ccccc4)cc3)NC(=O)[C@H](C(C)C)NC(=O)[C@@H]2C)O[C@@H](C)[C@@H]1O`, the half-inhibitory concentration (IC50) was > 30000 nM.
